Values of other authors, collected in article PMC10005815 (Journal of Medicinal Chemistry, 2023).
Read-outs that look alike come from different tables or passages of the source. * marks the point of attachment. Cbz = O=C(OCc1ccccc1)*

Assays:
SARS-CoV-1 M^pro = conditions: for Ki: read-out: SARS-CoV-1 M^pro Ki
[1] = rat, in vivo
SARS-CoV-1 [2] = system: SARS-CoV-1
HCoV-229E = conditions: for EC50: read-out: HCoV-229E EC50
RdRp from SARS-CoV-2 = conditions: read-out: Predicted Ki for binding to the protein active site
SARS-CoV-1 [3] = conditions: mouse, in vivo
TMPRSS2 [4] = system: TMPRSS2
TMPRSS2 [5] = biological target: TMPRSS2; remark: listed apart in the source
[6] = system: SARS-CoV-2 Omicron BA.1 and BA.2; conditions: in vivo
[7] = system: MERS-CoV S protein-mediated cell–cell fusion; conditions: read-out: IC50 in vitro fusion assay (MERS-CoV)
panel of proteases = conditions: read-out: IC50 proteases (selectivity panel)
HCoV-OC43 = conditions: read-out: HCoV-OC43 EC90
[8] = buffer
COVID-19 = conditions: human, in vivo
[9] = system: human mitochondrial RNA polymerase (h-mtRNAP)
[10] = read-out: SARS-CoV-1 M^pro IC50

COc1cccc2[nH]c(C(=O)N[C@@H](CC(C)C)C(=O)N[C@@H](C[C@@H]3CCNC3=O)C(=O)c3nc4ccccc4s3)cc12 [5h]
Ki (SARS-CoV-1 M^pro): 6.3 nM | Ki (SARS-CoV-2 M^pro; read-out: SARS-CoV-2 M^pro Ki): 17.6 nM | Bioavailability [1]: low bioavailability

O=C(/C=C/c1ccccc1)N[C@@H](CC1CCCCC1)C(=O)N[C@@H](C[C@@H]1CCNC1=O)C(=O)C(=O)NCc1ccccc1 [11r]
IC50 (SARS-CoV-1 M^pro; [10]): 710 nM | IC50 (HCoV-NL63 M^pro): 12300 nM | EC50 (SARS-CoV-1 [2]; read-out: SARS-CoV-1 EC50): 2100 nM | S.I. MERS-CoV (CC50/EC50) (MERS-CoV): 1.1 × 10^5 | EC50 (HCoV-229E): 1800 nM

CC(C)(C)OC(=O)Nc1cccn([C@@H](CC2CC2)C(=O)N[C@@H](C[C@@H]2CCNC2=O)C(=O)C(=O)NCc2ccccc2)c1=O [13b]
IC50 (SARS-CoV-1 M^pro; [10]): 900 nM | EC50 (SARS-CoV-1 replicon): 1750 nM | EC50 (SARS-CoV-2; read-out: SARS-CoV-2 EC50): 4000 nM

COc1cccc2[nH]c(C(=O)N[C@@H](CC(C)C)C(=O)N[C@@H](C[C@@H]3CCCNC3=O)C(=O)COC(=O)c3c(C)cc(C)nc3C)cc12 [15l]
IC50 (SARS-CoV-2 M^pro; read-out: SARS-CoV-2 M^pro IC50): 19 nM | EC50 (HCoV-229E): 48 nM

O=C[C@H](C[C@@H]1CCNC1=O)NC(=O)[C@H](Cc1ccccc1)NC(=O)c1cc2ccccc2[nH]1 [18p]
EC50 (SARS-CoV-2; read-out: SARS-CoV-2 EC50): 290 nM

O=C(O)C1=CC(=C(c2ccc(O)c(C(=O)O)c2)c2ccc(O)c(C(=O)O)c2)C=CC1=O [ATA, Aurintricarboxylic acid]
Inhibition of mRNA transcription with respect to control (SARS-CoV-1 [2]): more than 1000 fold | SARS-CoV-1 replication IC50 (SARS-CoV-1 [2]): 200 µg/mL

Cc1cccc(/C=N/Nc2cc(N3CCOCC3)nc(OCCc3ccccn3)n2)c1 [Apilimod]
Concentration preventing EVD infection of several cell lines (Ebola): ~0.1 µM

COc1ccc2c(c1)[C@@H]1C[C@]1(C(=O)N1[C@@H]3CC[C@H]1CN(C)C3)Cn1c-2c(C2CCCCC2)c2ccc(C(=O)NS(=O)(=O)N(C)C)cc21 [Beclabuvir]
Ki (RdRp from SARS-CoV-2): ~50 nM

CN(C)C(=O)COC(=O)Cc1ccc(OC(=O)c2ccc(NC(=N)N)cc2)cc1 [Camostat]
Survival rate to SARS-CoV-1 (SARS-CoV-1 [3]): ~60% | Reduction of MERS-CoV production (MERS-CoV): 270 fold

NC1(C(=O)N[C@@H](CCO)c2ccc(Cl)cc2)CCN(c2ncnc3[nH]ccc23)CC1 [Capivasertib]
50% cytotoxicity concentration (Vero cells): 82 µM

CCOC(=O)[C@H]1OC1C(=O)N[C@@H](CC(C)C)C(=O)NCCC(C)C (stereo partly drawn) [E64D]
Reduction in the entry of SARS-CoV-2 PsV (SARS-CoV-2 PsV): 92.5%

N=C(N)Nc1ccc(C(=O)O)cc1 [GBA, 4-guanidinobenzoic acid]
TMPRSS2 inhibition (TMPRSS2 [4]): inactive

N=C(N)c1cccc(C[C@H](NS(=O)(=O)c2cccc(-c3ccc(Cl)cc3Cl)c2)C(=O)N2CCC(CCN)CC2)c1 [I-432]
Ki (TMPRSS2 [5]): 0.9 nM

CC(C)C(=O)OC[C@H]1O[C@@H](n2ccc(NO)nc2=O)[C@H](O)[C@@H]1O [Molnupiravir]
Effect on virus titers [6]: only reduced the lung virus titers | Efficacy in inhibiting SARS-CoV-2 replication relative to remdesivir (SARS-CoV-2): 5–10 fold

Cc1cc(C(=O)N[C@@H](C)C(=O)N[C@H](C(=O)N[C@@H](CC(C)C)C(=O)N[C@H](/C=C/C(=O)OCc2ccccc2)C[C@@H]2CCNC2=O)C(C)C)no1 [N3]
Ki (HCoV-229E M^pro): 1670 nM

N=C(N)Nc1ccc(C(=O)Oc2ccc3cc(C(=N)N)ccc3c2)cc1 [Nafamostat]
IC50 [7]: ~1 nM

COc1cccc2[nH]c(C(=O)N[C@@H](CC(C)C)C(=O)N[C@@H](C[C@@H]3CCNC3=O)C(=O)CO)cc12 [PF-00835231]
EC50 (SARS-CoV-1 [2]; read-out: SARS-CoV-1 EC50): 4800 nM | IC50 (panel of proteases): > 10000 nM

CC(C)(C)[C@H](NC(=O)C(F)(F)F)C(=O)N1C[C@H]2[C@@H]([C@H]1C(=O)N[C@H](C#N)C[C@@H]1CCNC1=O)C2(C)C [PF-07321332]
Effect on virus titers [6]: only reduced the lung virus titers

Cn1cnc(Cn2c(=O)[nH]/c(=N\c3cc4cn(C)nc4cc3Cl)n(Cc3cc(F)c(F)cc3F)c2=O)n1 [S-217622]
EC50 (SARS-CoV-1 [2]; read-out: SARS-CoV-1 EC50): 210 nM | Effect on virus titers [6]: additionally decreased the virus titers in the nasal turbinates | EC50 (SARS-CoV-2; read-out: SARS-CoV-2 WT strain EC50): 370 nM | EC50 (MERS-CoV; read-out: MERS-CoV EC50): 1400 nM | EC50 (HCoV-229E): 5500 nM | EC90 (HCoV-OC43): 74 nM | CC50 (Vero E6/TMPRSS2 cells): > 100000 nM

CCC(C)(C)NC(=O)C(c1ccn(C)c1)N(C(=O)Cn1nnc2ccccc21)c1ccc(NC(C)=O)cc1 (stereo not drawn) [SID24808289]
IC50 (SARS-CoV-1 M^pro; [10]): 6200 nM | IC50 (SARS-CoV-1 PL^pro): > 60000 nM

CCc1ccccc1NC(=O)CSC(=O)NNC(=O)[C@H](Cc1c[nH]c2ccccc12)NC(=O)OC(C)(C)C [SID-26681509]
Decrease of SARS-CoV-2 pseudovirion entry (SARS-CoV-2 PsV): about 76%

CC(OC(C)(C)C)[C@H](NC(=O)OCc1ccccc1)C(=O)N[C@@H](CC1CCCCC1)C(=O)N[C@H](C=O)C[C@@H]1CCNC1=O (stereo partly drawn) [TG-0205221]
Ki (SARS-CoV-1 M^pro): 53 nM | Ki (HCoV-229E M^pro): 68 nM

COc1ccc(C(=O)Nc2cccc(C(F)(F)F)c2)cc1Nc1nc(-c2cccnc2)c2[nH]ccc2n1 [XMU-MP-7]
Kd (Akt): 6.4 nM

CN(C)CCCSc1ccccc1NC(=O)/C=C/c1ccccc1 [cinanserin]
IC50 (SARS-CoV-1 M^pro; read-out: M^pro IC50): ~5000 nM | IC50 (HCoV-229E; read-out: HCoV-229E IC50 (antiviral assay)): 19000 nM

O=C(On1nnc2ccccc21)c1ccc2[nH]ccc2c1 [compound 8]
Ki (SARS-CoV-1 M^pro): 7.5 nM

O=C(Oc1cncc(Cl)c1)c1cccc2[nH]ccc12 [compound 10]
IC50 (SARS-CoV-1 M^pro; [10]): 30 nM | EC50 (SARS-CoV-1 [2]; read-out: SARS-CoV-1 EC50): 6900 nM

O=C(Oc1cncc(Br)c1)c1ccco1 [compound 39]
IC50 (SARS-CoV-1 M^pro; [10]): 50 nM | T1/2 [8]: [drawing 13] 39 SARS-CoV-1 M^pro IC50= 50 nM T1/2 = 119 h, phosphate buffer pH= 7.5

CCOc1cc2ncc(C#N)c(Nc3ccc(F)c(Cl)c3)c2cc1NC(=O)/C=C/CN(C)C [pelitinib]
EC50 (SARS-CoV-2; read-out: EC50 (antiviral)): 1250 nM

CCC(CC)COC(=O)[C@H](C)N[P@](=O)(OC[C@H]1O[C@@](C#N)(c2ccc3c(N)ncnn23)[C@H](O)[C@@H]1O)Oc1ccccc1 [remdesivir, Remdesivir]
Reduction of hospitalization compared to placebo (COVID-19): 87% | IC50 (SARS-CoV-2; read-out: SARS-CoV-2 infection IC50): 770 nM | CC50 (Vero E6 cells): > 100000 nM

N#C[C@@]1(c2ccc3c(N)ncnn23)O[C@H](COP(=O)(O)OP(=O)(O)OP(=O)(O)O)[C@@H](O)[C@H]1O [remdesivir-TP]
Selectivity with respect to ATP [9]: up to 500 fold

Cbz-Val-Phe-aldehyde [MDL28170]
EC50 (SARS-CoV-1 [2]; read-out: EC50 neutral red uptake assay): 500 nM
